# Measurements: the supplement of paper PMC10307832
# What was measured:
# Test in all cases: relative viability (nuclei count vs DMSO), 5 days (fraction); higher = more cells survive
# [1] = compound: C1=CC=C(C(=C1)C2=CC=C(C=C2)C3=CSC4=C3C(=C(C(=O)N4)C#N)O)O + C[C@@H](Oc1cc(-c2cnn(C3CCNCC3)c2)cnc1N)c1c(Cl)ccc(F)c1Cl [Crizotinib] (partner 1 µM)
# Method in brief: (§1)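 Dosing by pin tool came one day after lung cancer cell lines were seeded in 1536-well plates, using either one drug or a fixed anchor-drug dose plus five library-drug doses (not always all listed) in √10 steps. After 5 days, nuclei were counted on 4× images. Relative viability is treated-well nuclei count divided by vehicle-well nuclei count, and values are medians of duplicate plates.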
# [2] = compound: C1=CC=C(C(=C1)C2=CC=C(C=C2)C3=CSC4=C3C(=C(C(=O)N4)C#N)O)O + N=C(N)NC(=N)NCCc1ccccc1 [Phenformin] (partner 250 µM)
# Method in brief: as §1
# TGX 221 + Dasatinib = compound: CC1=CN2C(=O)C=C(N=C2C(=C1)C(C)NC3=CC=CC=C3)N4CCOCC4 [TGX 221] + Cc1nc(Nc2ncc(C(=O)Nc3c(C)cccc3Cl)s2)cc(N2CCN(CCO)CC2)n1 [Dasatinib] (partner 0.075 µM)
# Method in brief: as §1
# [3] = compound: O=C(CCCCCCNC(=O)c1cnc(N(c2ccccc2)c2ccccc2)nc1)NO [Ricolinostat] + CC(C)C[C@H](NC(=O)[C@H](Cc1ccccc1)NC(=O)c1cnccn1)B(O)O [Bortezomib] (partner 0.002 µM)
# Method in brief: as §1
Cell Line,relative viability ([1]; first compound 0.08 µM),relative viability ([1]; first compound 0.253 µM),relative viability ([1]; first compound 0.8 µM),relative viability ([1]; first compound 2.53 µM),relative viability ([1]; first compound 8 µM),relative viability ([2]; first compound 0.08 µM),relative viability ([2]; first compound 0.253 µM),relative viability ([2]; first compound 0.8 µM),relative viability ([2]; first compound 2.53 µM),relative viability ([2]; first compound 8 µM),relative viability (TGX 221 + Dasatinib; first compound 0.08 µM),relative viability (TGX 221 + Dasatinib; first compound 0.253 µM),relative viability (TGX 221 + Dasatinib; first compound 0.8 µM),relative viability (TGX 221 + Dasatinib; first compound 2.53 µM),relative viability (TGX 221 + Dasatinib; first compound 8 µM),relative viability ([3]; first compound 0.08 µM),relative viability ([3]; first compound 0.253 µM),relative viability ([3]; first compound 0.8 µM),relative viability ([3]; first compound 2.53 µM)
BEN,0.771,0.948,0.886,1.02,0.776,0.282,0.289,0.265,0.278,0.274,0.385,0.266,0.317,0.328,0.293,0.781,0.694,0.567,0.609
RERF-LC-KJ,0.875,0.885,0.858,0.86,0.763,0.397,0.492,0.412,0.454,0.352,0.692,0.795,0.811,0.764,0.744,1.15,1,1.11,1.02
UMC-11,0.547,0.506,0.574,0.487,0.622,0.309,0.404,0.344,0.291,0.27,0.481,0.437,0.436,0.535,0.492,0.571,0.795,0.678,0.372
HOP-62,0.901,1.14,0.983,1.04,0.783,0.57,0.854,0.565,0.679,0.359,0.668,0.566,0.635,0.533,0.534,0.501,0.595,0.799,0.532
NCI-H2023,0.546,0.759,0.607,0.701,0.538,0.342,0.351,0.429,0.466,0.37,0.481,0.481,0.592,0.537,0.407,0.822,1.09,0.88,0.839
NCI-H596,0.96,1.02,1.08,0.97,0.834,0.629,0.695,0.741,0.724,0.571,0.593,0.531,0.585,0.522,0.563,0.896,1.09,1.13,
LOU-NH91,0.718,0.772,0.792,0.667,0.704,0.716,0.726,0.655,0.616,0.63,0.561,0.541,0.535,0.571,0.529,,0.502,0.497,0.446
COR-L23,0.577,0.89,0.772,0.644,0.533,0.383,0.467,0.464,0.467,0.372,0.483,0.457,0.538,0.488,0.431,0.919,0.894,0.951,0.464
EPLC-272H,,1.04,0.839,0.891,0.796,0.219,0.254,0.398,0.327,0.248,0.392,0.29,0.351,0.302,0.287,,0.751,0.848,0.871
H3255,0.806,1.01,0.723,0.873,0.815,0.326,0.39,0.377,0.347,0.362,0.257,0.417,0.355,0.307,0.342,0.516,0.727,0.678,0.617
NCI-H650,0.713,1.05,0.633,0.703,0.719,0.474,0.531,0.448,0.465,0.44,0.44,0.402,0.424,0.393,0.429,,0.788,0.544,0.23
NCI-H23,0.466,0.686,0.381,0.511,0.386,0.782,0.85,0.872,0.754,0.583,0.784,0.745,0.823,0.742,0.586,0.793,1.14,1.16,0.993
HCC-366,0.245,0.779,0.614,0.599,0.285,0.632,0.623,0.584,0.646,0.591,0.693,0.606,0.639,0.586,0.55,0.906,1.11,0.904,0.639
NCI-H2405,0.787,0.844,0.855,0.812,0.787,0.266,0.381,0.385,0.445,0.37,0.235,0.206,0.22,0.205,0.179,0.816,0.952,0.932,0.992
NCI-H441,0.738,0.873,0.839,0.777,0.525,0.706,1.01,1.03,0.927,0.633,0.534,0.597,0.59,0.609,0.661,0.596,0.341,0.342,0.25
NCI-H322M,0.708,0.535,0.882,0.99,0.868,0.69,0.751,0.776,0.871,0.865,0.231,0.242,0.244,0.247,0.224,,1.14,1.29,1.22
